Measurements taken from ChEMBL document CHEMBL4270514, “Design, synthesis and biological evaluation of novel xanthine oxidase inhibitors bearing a 2-arylbenzo[b]furan scaffold” (Eur J Med Chem, 2018).
The source made the active and inactive calls. The rule behind the calls is not given here.

Columns and labels:
[1] = target: T1, Xanthine dehydrogenase/oxidase (Bos taurus, UniProt P80457); experiment: Inhibition of bovine xanthine oxidase using xanthine as substrate preincubated for 3 mins followed by substrate addition and measured for every 15 secs for 7 mins by spectrophotometric analysis
[2] = Cytotoxicity against mouse RAW264.7 cells assessed as effect on cell viability at 1 to 10 uM after 24 hrs by MTT assay relative to control; assay type: cell-based; conditions: read-out: Activity
[3] = Antioxidant activity assessed as DPPH radical scavenging activity after 30 mins by spectrophotometric analysis; assay type: functional
[4] = system: RAW264.7; experiment: Inhibition of LPS-induced ROS generation in mouse RAW264.7 cells after 24 hrs by H2DCFH staining-based fluorescence assay; assay type: functional, cell-based
[5] = system: RAW264.7; experiment: Inhibition of LPS-induced ROS generation in mouse RAW264.7 cells at 1 to 10 uM after 24 hrs by H2DCFH staining-based fluorescence assay; assay type: functional, cell-based
[6] = system: RAW264.7; experiment: Inhibition of LPS-induced ROS generation in mouse RAW264.7 cells at 10 uM after 24 hrs by H2DCFH staining-based fluorescence assay; assay type: functional, cell-based
[7] = system: Mus musculus; experiment: Hypouricemic effect in ICR mouse model of potassium oxonate-induced acute hyperuricemia assessed as reduction in serum uric acid levels at 10 mg/kg, iv measured at 1 hr post dose; assay type: functional, organism-based
[8] = system: Mus musculus; experiment: Hypouricemic effect in iv dosed ICR mouse model of potassium oxonate-induced acute hyperuricemia assessed as reduction in serum uric acids level measured after 1 hr post dose; assay type: functional, organism-based
[9] = target: T1, Xanthine dehydrogenase/oxidase; experiment: Competitive inhibition of bovine xanthine oxidase using xanthine as substrate preincubated for 3 mins followed by substrate addition by Lineweaver-Burk plot analysis
[10] = target: T1, Xanthine dehydrogenase/oxidase; experiment: Uncompetitive inhibition of bovine xanthine oxidase using xanthine as substrate preincubated for 3 mins followed by substrate addition by Lineweaver-Burk plot analysis

T1 sequence (P80457 whole entry): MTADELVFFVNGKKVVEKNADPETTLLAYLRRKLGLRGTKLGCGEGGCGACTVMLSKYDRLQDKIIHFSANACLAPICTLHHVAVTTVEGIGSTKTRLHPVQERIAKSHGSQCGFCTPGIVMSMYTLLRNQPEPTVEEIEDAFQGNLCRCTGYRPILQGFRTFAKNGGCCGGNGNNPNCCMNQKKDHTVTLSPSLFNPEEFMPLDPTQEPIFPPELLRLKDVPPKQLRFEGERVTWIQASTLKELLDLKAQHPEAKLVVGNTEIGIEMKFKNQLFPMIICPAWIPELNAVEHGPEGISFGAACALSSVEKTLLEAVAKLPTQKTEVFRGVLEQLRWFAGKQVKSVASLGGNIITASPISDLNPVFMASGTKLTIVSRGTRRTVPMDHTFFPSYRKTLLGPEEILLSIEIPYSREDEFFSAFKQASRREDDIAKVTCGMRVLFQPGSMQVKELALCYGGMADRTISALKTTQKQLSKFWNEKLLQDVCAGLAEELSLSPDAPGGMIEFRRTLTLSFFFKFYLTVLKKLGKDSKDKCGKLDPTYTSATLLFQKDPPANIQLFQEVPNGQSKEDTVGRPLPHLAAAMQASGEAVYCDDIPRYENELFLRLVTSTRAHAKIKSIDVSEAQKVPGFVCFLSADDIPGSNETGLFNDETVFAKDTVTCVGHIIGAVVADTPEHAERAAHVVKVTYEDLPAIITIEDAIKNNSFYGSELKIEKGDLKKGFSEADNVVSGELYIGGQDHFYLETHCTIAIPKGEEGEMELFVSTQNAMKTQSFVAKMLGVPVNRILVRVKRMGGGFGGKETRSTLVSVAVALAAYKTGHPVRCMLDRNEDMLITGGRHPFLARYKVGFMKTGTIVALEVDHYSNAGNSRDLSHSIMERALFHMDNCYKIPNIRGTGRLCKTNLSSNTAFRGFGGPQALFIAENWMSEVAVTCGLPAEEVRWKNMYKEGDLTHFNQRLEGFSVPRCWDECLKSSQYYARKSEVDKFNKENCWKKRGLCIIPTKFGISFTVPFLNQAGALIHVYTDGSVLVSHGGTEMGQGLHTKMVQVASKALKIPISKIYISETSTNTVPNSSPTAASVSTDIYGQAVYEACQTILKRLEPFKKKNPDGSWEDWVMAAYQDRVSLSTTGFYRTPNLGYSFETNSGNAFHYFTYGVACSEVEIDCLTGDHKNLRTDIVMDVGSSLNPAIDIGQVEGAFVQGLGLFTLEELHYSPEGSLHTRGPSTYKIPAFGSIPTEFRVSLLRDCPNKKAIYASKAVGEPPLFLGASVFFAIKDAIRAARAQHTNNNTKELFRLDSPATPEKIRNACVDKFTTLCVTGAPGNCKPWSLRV

Compound | IC50 [1] [µM] | viability at 24 h, up to 10 µM [2] [%] | IC50 [3] [µM] | inhibition [4] | inhibition [5] | inhibition [6] | viability at 24 h, 10 µM [2] [%] | Activity [7] | Activity [8] | Ki [9] [µM] | Ki [10] [µM]
CC(C)NC(=O)/C=C/c1ccc(O)c2oc(-c3ccc(O)c(O)c3)cc12 | 13.9 | > 85 | 6.62 to 21.1 | Dose-dependent effect | – | – | – | – | – | – | –
CC(C)(C)NC(=O)/C=C/c1ccc(O)c2oc(-c3ccc(O)c(O)c3)cc12 | 45.2 | > 85 | 6.62 to 21.1 | Dose-dependent effect | – | – | – | – | – | – | –
O=C(/C=C/c1ccc(O)c2oc(-c3ccc(O)c(O)c3)cc12)Nc1ccc(F)cc1 | 83.8 | > 85 | 6.62 to 21.1 | Dose-dependent effect | – | – | – | – | – | – | –
C=CCNC(=O)CCc1ccc(O)c2oc(-c3ccc(O)c(O)c3)cc12 | 46.8 | > 85 | 6.62 to 21.1 | – | – | – | – | – | – | – | –
O=C(/C=C/c1ccc(O)c2oc(-c3ccc(O)c(O)c3)cc12)N1CCOCC1 | > 100 | > 85 | 6.62 to 21.1 | – | inactive | – | – | – | – | – | –
CCCOC(=O)/C=C/c1ccc(O)c2oc(-c3ccc(O)c(O)c3)cc12 | 19.3 | > 85 | 6.62 to 21.1 | – | – | Active | – | – | – | – | –
O=C(/C=C/c1ccc(O)c2oc(-c3ccc(O)c(O)c3)cc12)Nc1ccc(O)cc1 | 11 | – | 6.62 to 21.1 | – | inactive | – | > 85 | – | – | – | –
CC(C)OC(=O)/C=C/c1ccc(O)c2oc(-c3ccc(O)c(O)c3)cc12 | 24.2 | > 85 | 6.62 to 21.1 | – | inactive | – | – | – | – | – | –
O=C(/C=C/c1ccc(O)c2oc(-c3ccc(O)c(O)c3)cc12)Nc1ccccc1 | 17.8 | > 85 | 6.62 to 21.1 | – | inactive | – | – | – | – | – | –
Cc1ccc(NC(=O)/C=C/c2ccc(O)c3oc(-c4ccc(O)c(O)c4)cc23)cc1 | 51.3 | > 85 | 6.62 to 21.1 | Dose-dependent effect | – | – | – | – | – | – | –
Oc1ncnc2[nH]ncc12 | – | – | – | – | – | – | – | Active | – | – | –
O=C(/C=C/c1ccc(O)c2oc(-c3ccc(O)c(O)c3)cc12)N1CCCCC1 | 21.2 | > 85 | 6.62 to 21.1 | Dose-dependent effect | – | – | – | – | – | – | –
COc1ccc(NC(=O)/C=C/c2ccc(O)c3oc(-c4ccc(O)c(O)c4)cc23)cc1 | 42.2 | > 85 | 6.62 to 21.1 | Dose-dependent effect | – | – | – | – | – | – | –
O=C(O)CCc1ccc(O)c2oc(-c3ccc(O)c(O)c3)cc12 | 9.76 | > 85 | 6.62 to 21.1 | – | inactive | – | – | – | – | – | –
O=C(/C=C/c1ccc(O)c2oc(-c3ccc(O)c(O)c3)cc12)NCc1ccccc1 | 15.6 | > 85 | 6.62 to 21.1 | – | – | Active | – | – | – | – | –
C=CCNC(=O)/C=C/c1ccc(O)c2oc(-c3ccc(O)c(O)c3)cc12 | 18.2 | > 85 | 6.62 to 21.1 | – | inactive | – | – | – | – | – | –
O=C(/C=C/c1ccc(O)c2oc(-c3ccc(O)c(O)c3)cc12)O[C@H](Cc1ccc(O)c(O)c1)C(=O)O | – | > 85 | – | – | – | – | – | – | Dose-dependent effect | – | –
O=C(CCc1ccc(O)c2oc(-c3ccc(O)c(O)c3)cc12)Nc1ccc(O)cc1 | 38.6 | > 85 | 6.62 to 21.1 | – | inactive | – | – | – | – | – | –
O=C(/C=C/c1ccc(O)c2oc(-c3ccc(O)c(O)c3)cc12)Nc1ccc(Br)cc1 | > 100 | > 85 | 6.62 to 21.1 | Dose-dependent effect | – | – | – | – | – | – | –
CCNC(=O)/C=C/c1ccc(O)c2oc(-c3ccc(O)c(O)c3)cc12 | 13.5 | – | 6.62 to 21.1 | – | inactive | – | > 85 | – | – | – | –
CNC(=O)/C=C/c1ccc(O)c2oc(-c3ccc(O)c(O)c3)cc12 | 4.45 | > 85 | 6.62 to 21.1 | Dose-dependent effect | – | – | – | – | Dose-dependent effect | 3.52 | 13.1
O=C(O)/C=C/c1ccc(O)c2oc(-c3ccc(O)c(O)c3)cc12 [TOURNEFOLIC ACID A] | 16.1 | > 85 | – | Dose-dependent effect | – | – | – | – | – | – | –
COC(=O)/C=C/c1ccc(O)c2oc(-c3ccc(O)c(O)c3)cc12 | 6.55 | > 85 | 6.62 to 21.1 | Dose-dependent effect | – | – | – | – | – | – | –
CNC(=O)CCc1ccc(O)c2oc(-c3ccc(O)c(O)c3)cc12 | 11.5 | > 85 | 6.62 to 21.1 | – | inactive | – | – | – | – | – | –
CCOC(=O)/C=C/c1ccc(O)c2oc(-c3ccc(O)c(O)c3)cc12 | 15.5 | > 85 | 6.62 to 21.1 | Dose-dependent effect | – | – | – | – | – | – | –
O=C(CCc1ccc(O)c2oc(-c3ccc(O)c(O)c3)cc12)N1CCOCC1 | > 100 | > 85 | 6.62 to 21.1 | – | inactive | – | – | – | – | – | –
O=C(/C=C/c1ccc(O)c2oc(-c3ccc(O)c(O)c3)cc12)Nc1ccc(Cl)cc1 | > 100 | > 85 | 6.62 to 21.1 | Dose-dependent effect | – | – | – | – | – | – | –
